The values below come from US9944598B2, “Mono- or di-substituted indole derivatives as dengue viral replication inhibitors” (priority 2014, dated 2018).

In general, EC50 refers to the concentration giving half of the maximal effect.

Holding throughout (type): cell-based
The subject of experiment [1] is DENV-3 strain H87 prototype. Description: Tetravalent RT-qPCR assay Protocol B, serotype 3. The note with it: Dengue virus, DENV3, 168 h, RT-qPCR serotype 3 H87, Vero cells, 7 days. The protocol: Vero cells (4×10^4) were seeded in 96-well plates. After one day, cell culture medium was replaced with 100 μL assay medium containing a 2×, 3× or 5× serial dilution of the compound (concentration range: 50 μg/mL-0.00038 μg/mL, 50 μg/mL-0.0076 μg/mL, and 50 μg/mL-0.00013 μg/mL, respectively) and 100 μL of dengue virus dilution, where a Ct of ˜20 is achieved in RTqPCR. Following a 2 hour incubation period, the cell monolayer was washed 3 times with assay medium to remove residual, non-adsorbed virus and cultures were further incubated for either 4 days (DENV-2 NGC-Tongalike) or 7 days (DENV-1 Djibouti strain D1/H/IMTSSA/98/606, DENV-3 strain H87 prototype, DENV-4 strain H241) in the presence of the inhibitor. Supernatant was harvested and viral RNA load was determined by real-time quantitative RT-PCR. The 50% effective concentration (EC50), which is defined as the compound concentration that is required to inhibit viral RNA replication by 50%, was determined using logarithmic interpolation (Tables 7 and 8).
RNA was isolated from 100 μL supernatant with the NucleoSpin 96 Virus kit (Filter Service, Düren, Germany) as described by the manufacturer. The sequences of the TaqMan primers (DENV-For, DENV-Rev; Table 5) and TaqMan probes (DENV-Probe Table 5) were selected from non-structural gene 3 (NS3) or NSS, of the respective flaviviruses using Primer Express software (version 2.0; Applied Biosystems, Lennik, Belgium). The TaqMan probe was fluorescently labelled with 6-carboxyfluorescein (FAM) at the 5′ end as the reporter dye, and with minor groove binder (MGB) at the 3′ end as the quencher (Table 5). One-step, quantitative RT-PCR was performed in a total volume of 25 μL, containing 13.9375 μL H2O, 6.25 μL master mix (Eurogentec, Seraing, Belgium), 0.375 μL forward primer, 0.375 μL reverse primer, 1 μL probe, 0.0625 μL reverse transcriptase (Eurogentec) and 3 μL sample. RT-PCR was performed using the ABI 7500 Fast Real-Time PCR System (Applied Biosystems, Branchburg, N.J., USA) using the following conditions: 30 min at 48° C. and 10 min at 95° C., followed by 40 cycles of 15 s at 95° C. and 1 min at 60° C. The data was analyzed using the ABI PRISM 7500 SDS software (version 1.3.1; Applied Biosystems). For absolute quantification, standard curves were generated using 10-fold dilutions of template preparations of known concentrations.
For orientation: In qPCR the cycle at which signal appears reflects the starting amount.

The subject of experiment [2] is DENV-4 strain H241. Description: Tetravalent RT-qPCR assay Protocol A, serotype 4 H241. Particulars: Dengue virus, DENV4, 72 h, RT-qPCR serotype 4 H241, Vero cells, 3 days. Here is the method:
(§1) The antiviral activity of the compounds of the invention was tested against DENV-1 strain TC974#666 (NCPV), DENV-2 strain 16681, DENV-3 strain H87 (NCPV) and DENV-4 strains H241 (NCPV) and EDEN (SG/06K2270DK1/2005; GenBank accession number QG398256) in a RT-qPCR assay. Therefore, Vero cells were infected with either DENV-1, or -2, or -3, or -4 in the presence or absence of test compounds. At day 3 post-infection, the cells were lysed and cell lysates were used to prepare cDNA of both a viral target (the 3′UTR of DENV; table 2) and a cellular reference gene (β-actin, table 2). Subsequently, a duplex real time PCR was performed on a Lightcycler480 instrument. The generated Cp value is inversely proportional to the amount of RNA expression of these targets. Inhibition of DENV replication by a test compound result in a shift of Cp's for the 3′UTR gene. On the other hand, if a test compound is toxic to the cells, a similar effect on β-actin expression will be observed. The comparative ΔΔCp method is used to calculate EC50, which is based on the relative gene expression of the target gene (3′UTR) normalized with the cellular housekeeping gene (β-actin). In addition, CC50 values were determined based on the Cp values acquired for the housekeeping gene β-actin.
(§2) The culture medium consisted of minimal essential medium supplemented with 2% of heat-inactivated fetal calf serum, 0.04% gentamycin (50 mg/mL) and 2 mM of L-glutamine. Vero cells, obtained from ECACC, were suspended in culture medium and 75 μL/well was added in 96-well plates (10000 cells/well), which already contain the antiviral compounds. Typically, these plates contain a 4-fold serial dilution of 9 dilution steps of the test compound at 200 times the final concentration in 100% DMSO (500 nL; final concentration range: 25 μM-0.00038 μM). In addition, each plate contains wells which are assigned as virus controls (containing cells and virus in the absence of compound) and cell controls (containing cells in the absence of virus and compound). Once the cells were added in the plates, the plates were incubated in a fully humidified incubator (37° C., 5% CO2) until the next day. Then, DENV-1 strain TC974#666, DENV-2 strain 16681, DENV-3 strain H87 or DENV-4 strains H241 or EDEN were added. […] In parallel, 25 μL of culture medium was added to the cell controls. Next, the plates were incubated for 3 days in a fully humidified incubator (37° C., 5% CO2). After 3 days, the supernatant was removed from the wells and the cells were washed twice with ice-cold PBS (˜100 μL). The cell pellets within the 96-well plates were stored at −80° C. for at least 1 day. Next, RNA was extracted using the Cells-to-CT™ lysis kit, according to the manufacture's guideline (Applied Biosystems). The cell lysates can be stored at −80° C. or immediately used in the reverse transcription step.
(§3) In preparation of the reverse transcription step, mix A (table 3A) was prepared and 7.57 μL/well was dispensed in a 96-well plate. After addition of 5 μL of the cell lysates, a five minute denaturation step at 75° C. was performed (table 3B). Afterwards, 7.43 μL of mix B was added (table 3C) and the reverse transcription step was initiated (table 3D) to generate cDNA.
(§4) Finally, a RT-qPCR mix was prepared, mix C (table 4A), dispensed in 96-well LightCycler qPCR plates to which 3 μL of cDNA was added and the qPCR was performed according to the conditions in table 4B on a LightCycler 480.
(§5) Using the LightCycler software and an in-house LIMS system, dose response curves for each compound were calculated and the half maximal effective concentration (EC50) and the half maximal cytotoxic concentration (CC50) were determined (Tables 6-9).

For experiment [3], the system named is DENV-4 strain EDEN (SG/06K2270DK1/2005). Description: Tetravalent RT-qPCR assay Protocol A, serotype 4 EDEN. The note with it: Dengue virus, DENV4, 72 h, RT-qPCR serotype 4 EDEN, Vero cells, 3 days. Here is the method:
as §1, §2, §3, §4, §5

The subject of experiment [4] is DENV-3 strain H87. Description: Tetravalent RT-qPCR assay Protocol A, serotype 3. The note with it: Dengue virus, DENV3, 72 h, RT-qPCR serotype 3 H87, Vero cells, 3 days. The protocol: as §1, §2, §3, §4, §5

Turning to `COc1cc(NC(C(=O)c2c[nH]c3cc(F)ccc23)c2ccc(Cl)cc2OC)cc(OCCO)c1` (single isomer, unassigned) [Compound 1A, 2-(4-chloro-2-methoxyphenyl)-1-(6-fluoro-1H-indol-3-yl)-2-((3-(2-hydroxyethoxy)-5-methoxyphenyl)amino)ethanone], the EC50 was < 15 nM in experiment [1], 240 nM in experiment [2], 6.2 nM in experiment [3] and 63 nM in experiment [4].

With `COc1cc(NC(C(=O)c2c[nH]c3c(C)c(F)ccc23)c2ccc(Cl)cc2OC)cc(OCCO)c1` (single isomer, unassigned) [Compound 2A, 2-(4-chloro-2-methoxyphenyl)-1-(6-fluoro-7-methyl-1H-indol-3-yl)-2-((3-(2-hydroxyethoxy)-5-methoxyphenyl)amino)ethanone], the EC50 in experiment [1] was 21 nM; in experiment [2], 260 nM; in experiment [3], 4.3 nM; in experiment [4] it was 53 nM.

Take `COc1cc(NC(C(=O)c2c[nH]c3c(C)c(Cl)ccc23)c2ccc(Cl)cc2OC)cc(OCCO)c1` (single isomer, unassigned) [Compound 3A, 2-(4-chloro-2-methoxyphenyl)-1-(6-chloro-7-methyl-1H-indol-3-yl)-2-((3-(2-hydroxyethoxy)-5-methoxyphenyl)amino)ethanone]: the EC50 was 20 nM in experiment [1], 180 nM in experiment [2], 2.9 nM in experiment [3] and 36 nM in experiment [4].

`COc1cc(NC(C(=O)c2c[nH]c3cc(Cl)ccc23)c2ccc(Cl)cc2OC)cc(OCCO)c1` (single isomer, unassigned) [Compound 4A, 1-(6-chloro-1H-indol-3-yl)-2-(4-chloro-2-methoxyphenyl)-2-((3-(2-hydroxyethoxy)-5-methoxyphenyl)amino)ethanone]: the EC50 was 29 nM in experiment [1], 240 nM in experiment [2], 5.2 nM in experiment [3] and 65 nM in experiment [4].

For `COc1cc(NC(C(=O)c2c[nH]c3cc(OC)ccc23)c2ccc(Cl)cc2OC)cc(OCCO)c1` (single isomer, unassigned) [Compound 5A, 2-(4-chloro-2-methoxyphenyl)-2-((3-(2-hydroxyethoxy)-5-methoxyphenyl)amino)-1-(6-methoxy-1H-indol-3-yl)ethanone], the EC50 in experiment [1] was found to be 25 nM; in experiment [2] it was 320 nM; in experiment [3], 4.6 nM; in experiment [4] it was 68 nM.

For the molecule `COc1cc(NC(C(=O)c2c[nH]c3cc(OC)c(C)cc23)c2ccc(Cl)cc2OC)cc(OCCO)c1` (single isomer, unassigned) [Compound 6A, 2-(4-chloro-2-methoxyphenyl)-2-((3-(2-hydroxyethoxy)-5-methoxyphenyl)amino)-1-(6-methoxy-5-methyl-1H-indol-3-yl)ethanone], the concentration giving a half-maximal response (EC50) is < 15 nM in experiment [1], 84 nM in experiment [2], 2.9 nM in experiment [3] and 26 nM in experiment [4].

Turning to `COc1cc(NC(C(=O)c2c[nH]c3cc(OC)c(F)cc23)c2ccc(Cl)cc2OC)cc(OCCO)c1` (single isomer, unassigned) [Compound 7A, 2-(4-chloro-2-methoxyphenyl)-1-(5-fluoro-6-methoxy-1H-indol-3-yl)-2-((3-(2-hydroxyethoxy)-5-methoxyphenyl)amino)ethanone], the EC50 is < 17 nM in experiment [1], 230 nM in experiment [2], 6.6 nM in experiment [3] and 70 nM in experiment [4].

For `COc1cc(NC(C(=O)c2c[nH]c3c(C)cc(F)cc23)c2ccc(Cl)cc2OC)cc(OCCO)c1` (single isomer, unassigned) [Compound 8A, 2-(4-chloro-2-methoxyphenyl)-1-(5-fluoro-7-methyl-1H-indol-3-yl)-2-((3-(2-hydroxyethoxy)-5-methoxyphenyl)amino)ethanone], the EC50 was found to be 32 nM in experiment [1], 300 nM in experiment [2], 6.5 nM in experiment [3] and 76 nM in experiment [4].

Regarding `COc1cc(NC(C(=O)c2c[nH]c3cc(F)c(F)cc23)c2ccc(Cl)cc2OC)cc(OCCO)c1` (single isomer, unassigned) [Compound 9A, 2-(4-chloro-2-methoxyphenyl)-1-(5,6-difluoro-1H-indol-3-yl)-2-((3-(2-hydroxyethoxy)-5-methoxyphenyl)amino)ethanone], the EC50 in experiment [1] was found to be 18 nM; in experiment [2], 240 nM; in experiment [3], 4.7 nM; in experiment [4], 63 nM.

Consider `COc1cc(NC(C(=O)c2c[nH]c3c(F)cc(C)cc23)c2ccc(Cl)cc2OC)cc(OCCO)c1` (single isomer, unassigned) [Compound 10A, 2-(4-chloro-2-methoxyphenyl)-1-(7-fluoro-5-methyl-1H-indol-3-yl)-2-((3-(2-hydroxyethoxy)-5-methoxyphenyl)amino)ethanone], for which the EC50 in experiment [1] was 27 nM; in experiment [2] it was 320 nM; in experiment [3] it was 8.6 nM; in experiment [4], 70 nM.

On to `COc1cc(NC(C(=O)c2c[nH]c3c(F)c(F)ccc23)c2ccc(Cl)cc2OC)cc(OCCO)c1` (single isomer, unassigned) [Compound 11B, 2-(4-chloro-2-methoxyphenyl)-1-(6,7-difluoro-1H-indol-3-yl)-2-((3-(2-hydroxyethoxy)-5-methoxyphenyl)amino)ethanone], for which the EC50 in experiment [1] worked out at 26 nM; in experiment [2], 350 nM; in experiment [3] it was 9.8 nM; in experiment [4], 70 nM.
